Experimental data taken from US9572785B2, “DP2 antagonist and uses thereof” (Brickell Biotech, Inc., priority 2009, dated 2017).
In brackets after ≈: the same amount, converted by molar mass. Where two headings read alike, the source gives them in different places.

Tests used:
[1] = target: T1, recombinant human CRTH2 receptor (Homo sapiens, UniProt Q9Y5Y4); experiment: In vitro GTPγS binding assay; type: biochemical; conditions: CHO membranes, 80 nM PGD2, 0.2% human serum albumin
T1 construct: expressed in transfected cells
T1 sequence (Q9Y5Y4 1-395): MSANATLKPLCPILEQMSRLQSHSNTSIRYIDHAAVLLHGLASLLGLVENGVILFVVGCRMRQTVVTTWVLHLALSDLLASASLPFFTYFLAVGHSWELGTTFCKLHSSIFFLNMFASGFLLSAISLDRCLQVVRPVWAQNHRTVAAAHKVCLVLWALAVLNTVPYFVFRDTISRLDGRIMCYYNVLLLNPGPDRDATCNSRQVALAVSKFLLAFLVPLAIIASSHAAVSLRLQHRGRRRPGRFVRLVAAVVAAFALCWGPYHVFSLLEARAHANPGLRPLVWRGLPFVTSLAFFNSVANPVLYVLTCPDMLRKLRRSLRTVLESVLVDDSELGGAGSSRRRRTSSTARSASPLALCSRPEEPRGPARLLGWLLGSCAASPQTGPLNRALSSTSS

[2] = Properties of the amorphous phase; type: physicochemical
in vivo = conditions: Hartley, guinea pig, in vivo
DP2 receptor [3] = target: T2, DP2 receptor (Cavia porcellus, UniProt H0W1T0); experiment: Whole blood eosinophil shape change (ESC) assay, guinea pig; type: cell-based; conditions: read-out: IC50, PGD2-induced eosinophil shape change
T2 sequence (H0W1T0 1-391): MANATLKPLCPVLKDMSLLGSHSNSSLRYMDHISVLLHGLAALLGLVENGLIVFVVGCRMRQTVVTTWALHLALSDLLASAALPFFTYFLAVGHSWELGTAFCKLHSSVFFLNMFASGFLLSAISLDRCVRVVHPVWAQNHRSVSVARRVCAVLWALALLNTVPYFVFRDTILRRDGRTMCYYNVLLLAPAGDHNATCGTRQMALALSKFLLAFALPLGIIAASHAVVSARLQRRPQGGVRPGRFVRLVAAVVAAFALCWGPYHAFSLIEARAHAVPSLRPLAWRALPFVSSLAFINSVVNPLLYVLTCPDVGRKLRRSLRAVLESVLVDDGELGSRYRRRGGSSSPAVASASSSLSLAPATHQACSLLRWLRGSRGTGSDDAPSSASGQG

physchem = conditions: water, 25 °C, pH 6.1, water, thermodynamic from solid
rat DP2 = target: T3, rat DP2 (Rattus norvegicus, UniProt Q6XKD3); experiment: DP2 radioligand membrane binding assay, rat; conditions: read-out: average IC50, inhibition of radiolabeled PGD2 binding
T3 sequence (Q6XKD3 1-403): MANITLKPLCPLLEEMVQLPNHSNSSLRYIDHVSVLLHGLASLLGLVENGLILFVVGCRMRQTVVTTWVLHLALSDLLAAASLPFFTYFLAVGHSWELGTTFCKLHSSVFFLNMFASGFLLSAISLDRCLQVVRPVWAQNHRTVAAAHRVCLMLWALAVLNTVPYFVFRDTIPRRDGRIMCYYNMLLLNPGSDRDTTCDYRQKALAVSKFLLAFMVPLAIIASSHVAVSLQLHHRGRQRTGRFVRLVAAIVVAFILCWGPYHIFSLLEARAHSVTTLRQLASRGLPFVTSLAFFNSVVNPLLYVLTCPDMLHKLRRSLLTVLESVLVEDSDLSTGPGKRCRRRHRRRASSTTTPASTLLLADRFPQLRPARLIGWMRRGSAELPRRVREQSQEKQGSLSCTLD
Procedure: HEK293 cells stably expressing recombinant human DP2 are resuspended in 10 mM Hepes, 7.4 containing 1 mM DTT, lysed and centrifuged at 75,000×g to pellet the membranes. The membranes are resuspended in 10 mM Hepes, 7.4 containing 1 mM DTT and 10% glycerol to approximately 5 mg protein/ml. […] The reactions are terminated by rapid filtration through Whatman GF/C glass fibre filter plates. […] After harvesting, the filter plates are washed 3 times with 1 ml cold Wash Buffer then dried. Scintillant is then added to the plates and the radioactivity retained on the filters is determined on a Packard TopCount (Perkin Elmer). Specific binding is determined as total radioactive binding minus non-specific binding in the presence of 10 μM PGD2. IC50s were determined using GraphPad prism analysis of drug titration curves. Mouse, rat and guinea pig DP2 receptors were also investigated.

[4] = Solubility profiling at various pHs; type: physicochemical; conditions: 0.15 M NaCl (aq), pH-adjusted, 25 °C, thermodynamic from solid
Procedure: Aqueous solubility was determined by suspending sufficient compound in water to give a maximum final concentration of ≧10 mg·ml^−1 of the parent free-form of the compound. The suspension was equilibrated at 25° C. for 24 hours then the pH was measured. The suspension was then filtered through a glass fibre C filter into a 96 well plate. The filtrate was then diluted by an appropriate factor. Quantitation was by HPLC with reference to a standard solution of approximately 0.1 mg·ml^−1 in DMSO. Different volumes of the standard, diluted and undiluted sample solutions were injected. The solubility was calculated using the peak areas determined by integration of the peak found at the same retention time as the principal peak in the standard injection.
The aqueous solubility was determined using the method described in Table 1. The pH was varied by the suspensions being made up in 0.15 M NaCl (aq) and the pH adjusted to the appropriate value with either dilute HCl or NaOH. The suspension was then allowed to equilibrate for two hours followed by checking the pH and readjustment if required, using either HCl or NaOH as appropriate. The suspension was then allowed to equilibrate for 24 hrs.

DP2 receptor [5] = target: T4, DP2 receptor (Homo sapiens, UniProt Q9Y5Y4); experiment: In vitro scintillation proximity assay (SPA) off-rate; type: binding; conditions: compared with PGD2
T4 sequence (Q9Y5Y4 1-395): T1 sequence (Q9Y5Y4 1-395)

clinical = conditions: human

CCN(Cc1cc(C(F)(F)F)ccc1-c1cc(CC(=O)O)ccc1OC)C(=O)NCc1ccccc1 [Compound 1, [2′-(3-benzyl-1-ethyl-ureidomethyl)-6-methoxy-4′-trifluoromethyl-biphenyl-3-yl]-acetic acid]
AUC0-24 (human, in vivo): 44.5 ng·h/mL
Cmax (human, in vivo): 15.8 ng/mL
t1/2 (multiple dose administration 30 mg, cohort 2, Day 7): 11.0 h
increase in 4-hydroxydiclofenac (CYP2C9) production compared to native cells (CYP2C9): 1.1 fold
IC50 [1]: < 20 nM
solubility in water [2]: sparingly soluble in water
hygroscopicity, weight change ([2]; from 0% to 90% relative humidity): 1.7%
concentration at 18.5 h (in vivo): < 40 nM
IC50 (DP2 receptor [3]): 21.5 nM
solubility at 24 h (physchem): 210 µg/mL (≈ 420 µM)
IC50 (rat DP2): 10.4 nM
solubility at 24 h ([4]; pH 5.6, saline or isotonic, Media pH 6, original pH 6.02, final pH 5.60): 160 µg/mL (≈ 320 µM)
solubility at 24 h ([4]; saline or isotonic, Media pH 1, original pH 1.15, final pH 1.15): 6.9 µg/mL (≈ 13.8 µM)
solubility at 24 h ([4]; saline or isotonic, Media pH 2, original pH 2.0, final pH 2.0): 1.6 µg/mL (≈ 3.2 µM)
solubility at 24 h ([4]; saline or isotonic, Media pH 3, original pH 3.01, final pH 3.1): 2.2 µg/mL (≈ 4.4 µM)
solubility at 24 h ([4]; saline or isotonic, Media pH 4, original pH 3.97, final pH 4.22): 3.5 µg/mL (≈ 6.99 µM)
solubility at 24 h ([4]; saline or isotonic, Media pH 5, original pH 5.0, final pH 5.07): 53 µg/mL (≈ 106 µM)
solubility at 24 h ([4]; saline or isotonic, Media pH 7, original pH 7.03, final pH 6.47): 590 µg/mL (≈ 1180 µM)
solubility at 24 h ([4]; saline or isotonic, Media pH 8, original pH 8.09, final pH 7.07): 2200 µg/mL (≈ 4400 µM)
off-rate from the DP2 receptor (DP2 receptor [5]): longer off-rate than PGD2
half-life (clinical; in vivo): 6.6 to 11 h
AUC(0-t) (clinical; plasma, oral, 30 mg): 32.3 ng·h/mL
Cmax (clinical; plasma, oral, 30 mg): 16 ng/mL
AUC(0-t) (clinical; plasma, po, 30 mg): 24.1 ng·h/mL
Cmax (clinical; plasma, po, 30 mg): 11.2 ng/mL
half-life (clinical; plasma, po, 30 mg): 6.6 h
AUC(0-t) (clinical; plasma, po, 100 mg): 118 ng·h/mL
Cmax (clinical; plasma, po, 100 mg): 81 ng/mL
half-life (clinical; plasma, po, 100 mg): 8.1 h
AUC(0-t) (clinical; plasma, po, 300 mg): 1420 ng·h/mL
Cmax (clinical; plasma, po, 300 mg): 1400 ng/mL
half-life (clinical; plasma, po, 300 mg): 7 h
